Measurements taken from paper PMC8518639 (Chemmedchem, 2021).
pIC50: −log10 of the molar value.

Legend:
SETD2 = SETD2 (Homo sapiens, UniProt Q9BYW2); assay: HotSpot Methyltransferase Profiling assay, SETD2; assay type: biochemical
MLL4 complex = MLL4 complex (Homo sapiens, UniProt Q9UMN6); assay: HotSpot Methyltransferase Profiling assay, MLL4 complex; assay type: biochemical
PRDM9 = PRDM9 (Homo sapiens, UniProt Q9NQV7); assay: HotSpot Methyltransferase Profiling assay, PRDM9; assay type: biochemical
[1] = Caco-2 cell permeability assay; assay type: in vitro ADME; settings: human; for Papp at 90 min, 10 μM: Caco-2, Papp
Caco‐2 cells = assay: Caco-2 cell permeability assay; assay type: in vitro ADME; settings: Caco‐2, 10 μM

Chain of MLL4 complex (Q9UMN6 2490-2715): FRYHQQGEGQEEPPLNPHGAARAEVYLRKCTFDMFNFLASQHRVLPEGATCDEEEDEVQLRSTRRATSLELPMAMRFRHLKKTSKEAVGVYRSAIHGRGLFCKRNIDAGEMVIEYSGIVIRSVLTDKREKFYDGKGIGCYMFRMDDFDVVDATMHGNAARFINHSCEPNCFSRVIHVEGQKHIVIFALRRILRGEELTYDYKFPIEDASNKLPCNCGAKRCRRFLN
Chain of MLL4 complex (Q9C005 whole entry, further chain): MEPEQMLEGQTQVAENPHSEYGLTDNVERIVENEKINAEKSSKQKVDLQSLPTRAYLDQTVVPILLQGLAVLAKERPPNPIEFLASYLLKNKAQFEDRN
Chain of MLL4 complex (Q15291 whole entry, further chain): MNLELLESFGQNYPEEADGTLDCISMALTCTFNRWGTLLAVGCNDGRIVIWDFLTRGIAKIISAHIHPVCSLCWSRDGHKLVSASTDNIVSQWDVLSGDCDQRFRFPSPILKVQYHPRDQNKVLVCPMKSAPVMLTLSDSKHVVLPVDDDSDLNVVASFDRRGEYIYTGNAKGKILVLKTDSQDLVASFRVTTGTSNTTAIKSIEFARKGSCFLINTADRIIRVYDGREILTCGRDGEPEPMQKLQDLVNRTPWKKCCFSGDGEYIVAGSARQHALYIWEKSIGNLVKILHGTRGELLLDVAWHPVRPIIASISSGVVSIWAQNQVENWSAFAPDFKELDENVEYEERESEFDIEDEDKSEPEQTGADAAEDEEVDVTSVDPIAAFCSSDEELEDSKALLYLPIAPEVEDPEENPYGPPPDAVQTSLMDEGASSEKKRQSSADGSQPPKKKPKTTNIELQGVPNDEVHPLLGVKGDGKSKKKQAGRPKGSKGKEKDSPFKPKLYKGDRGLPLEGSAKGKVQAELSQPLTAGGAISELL
Chain of MLL4 complex (Q9UBL3 96-628, further chain): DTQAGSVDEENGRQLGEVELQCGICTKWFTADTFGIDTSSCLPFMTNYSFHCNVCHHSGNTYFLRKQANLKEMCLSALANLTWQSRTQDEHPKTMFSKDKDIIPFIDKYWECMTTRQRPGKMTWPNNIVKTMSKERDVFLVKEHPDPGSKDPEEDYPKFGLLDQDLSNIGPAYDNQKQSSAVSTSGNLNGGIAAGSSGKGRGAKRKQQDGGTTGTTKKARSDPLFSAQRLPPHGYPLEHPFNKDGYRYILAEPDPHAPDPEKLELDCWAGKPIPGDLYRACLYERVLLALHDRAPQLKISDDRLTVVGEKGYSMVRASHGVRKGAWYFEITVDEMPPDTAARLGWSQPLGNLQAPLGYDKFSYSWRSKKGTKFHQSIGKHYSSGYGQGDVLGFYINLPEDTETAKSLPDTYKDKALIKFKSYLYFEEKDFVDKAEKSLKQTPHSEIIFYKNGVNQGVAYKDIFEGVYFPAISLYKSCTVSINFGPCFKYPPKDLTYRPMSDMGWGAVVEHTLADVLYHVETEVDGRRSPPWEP
Chain of PRDM9 (Q9NQV7 whole entry): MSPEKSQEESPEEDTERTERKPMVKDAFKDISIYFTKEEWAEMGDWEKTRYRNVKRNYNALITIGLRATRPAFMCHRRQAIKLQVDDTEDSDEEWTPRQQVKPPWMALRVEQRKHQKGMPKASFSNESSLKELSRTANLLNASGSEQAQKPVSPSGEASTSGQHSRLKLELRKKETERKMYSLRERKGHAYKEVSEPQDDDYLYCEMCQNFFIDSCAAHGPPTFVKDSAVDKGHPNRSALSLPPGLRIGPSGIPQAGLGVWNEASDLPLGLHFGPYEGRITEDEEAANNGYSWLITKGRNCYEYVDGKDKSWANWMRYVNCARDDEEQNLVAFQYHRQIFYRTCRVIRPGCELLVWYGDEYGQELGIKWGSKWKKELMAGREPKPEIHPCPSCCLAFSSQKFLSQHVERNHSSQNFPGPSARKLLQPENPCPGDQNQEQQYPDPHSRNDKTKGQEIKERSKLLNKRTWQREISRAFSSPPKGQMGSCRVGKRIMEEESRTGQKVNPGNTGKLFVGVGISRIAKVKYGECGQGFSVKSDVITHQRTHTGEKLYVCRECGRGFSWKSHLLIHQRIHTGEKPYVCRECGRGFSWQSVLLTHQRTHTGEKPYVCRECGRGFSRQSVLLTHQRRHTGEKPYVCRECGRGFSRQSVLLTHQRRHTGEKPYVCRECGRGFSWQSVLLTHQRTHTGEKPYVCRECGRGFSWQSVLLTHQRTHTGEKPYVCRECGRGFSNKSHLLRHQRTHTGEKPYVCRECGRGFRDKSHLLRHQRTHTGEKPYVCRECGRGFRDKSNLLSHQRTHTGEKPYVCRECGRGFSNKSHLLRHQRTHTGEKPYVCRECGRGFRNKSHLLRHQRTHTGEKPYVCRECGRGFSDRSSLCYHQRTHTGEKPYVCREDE
Chain of SETD2 (Q9BYW2 whole entry): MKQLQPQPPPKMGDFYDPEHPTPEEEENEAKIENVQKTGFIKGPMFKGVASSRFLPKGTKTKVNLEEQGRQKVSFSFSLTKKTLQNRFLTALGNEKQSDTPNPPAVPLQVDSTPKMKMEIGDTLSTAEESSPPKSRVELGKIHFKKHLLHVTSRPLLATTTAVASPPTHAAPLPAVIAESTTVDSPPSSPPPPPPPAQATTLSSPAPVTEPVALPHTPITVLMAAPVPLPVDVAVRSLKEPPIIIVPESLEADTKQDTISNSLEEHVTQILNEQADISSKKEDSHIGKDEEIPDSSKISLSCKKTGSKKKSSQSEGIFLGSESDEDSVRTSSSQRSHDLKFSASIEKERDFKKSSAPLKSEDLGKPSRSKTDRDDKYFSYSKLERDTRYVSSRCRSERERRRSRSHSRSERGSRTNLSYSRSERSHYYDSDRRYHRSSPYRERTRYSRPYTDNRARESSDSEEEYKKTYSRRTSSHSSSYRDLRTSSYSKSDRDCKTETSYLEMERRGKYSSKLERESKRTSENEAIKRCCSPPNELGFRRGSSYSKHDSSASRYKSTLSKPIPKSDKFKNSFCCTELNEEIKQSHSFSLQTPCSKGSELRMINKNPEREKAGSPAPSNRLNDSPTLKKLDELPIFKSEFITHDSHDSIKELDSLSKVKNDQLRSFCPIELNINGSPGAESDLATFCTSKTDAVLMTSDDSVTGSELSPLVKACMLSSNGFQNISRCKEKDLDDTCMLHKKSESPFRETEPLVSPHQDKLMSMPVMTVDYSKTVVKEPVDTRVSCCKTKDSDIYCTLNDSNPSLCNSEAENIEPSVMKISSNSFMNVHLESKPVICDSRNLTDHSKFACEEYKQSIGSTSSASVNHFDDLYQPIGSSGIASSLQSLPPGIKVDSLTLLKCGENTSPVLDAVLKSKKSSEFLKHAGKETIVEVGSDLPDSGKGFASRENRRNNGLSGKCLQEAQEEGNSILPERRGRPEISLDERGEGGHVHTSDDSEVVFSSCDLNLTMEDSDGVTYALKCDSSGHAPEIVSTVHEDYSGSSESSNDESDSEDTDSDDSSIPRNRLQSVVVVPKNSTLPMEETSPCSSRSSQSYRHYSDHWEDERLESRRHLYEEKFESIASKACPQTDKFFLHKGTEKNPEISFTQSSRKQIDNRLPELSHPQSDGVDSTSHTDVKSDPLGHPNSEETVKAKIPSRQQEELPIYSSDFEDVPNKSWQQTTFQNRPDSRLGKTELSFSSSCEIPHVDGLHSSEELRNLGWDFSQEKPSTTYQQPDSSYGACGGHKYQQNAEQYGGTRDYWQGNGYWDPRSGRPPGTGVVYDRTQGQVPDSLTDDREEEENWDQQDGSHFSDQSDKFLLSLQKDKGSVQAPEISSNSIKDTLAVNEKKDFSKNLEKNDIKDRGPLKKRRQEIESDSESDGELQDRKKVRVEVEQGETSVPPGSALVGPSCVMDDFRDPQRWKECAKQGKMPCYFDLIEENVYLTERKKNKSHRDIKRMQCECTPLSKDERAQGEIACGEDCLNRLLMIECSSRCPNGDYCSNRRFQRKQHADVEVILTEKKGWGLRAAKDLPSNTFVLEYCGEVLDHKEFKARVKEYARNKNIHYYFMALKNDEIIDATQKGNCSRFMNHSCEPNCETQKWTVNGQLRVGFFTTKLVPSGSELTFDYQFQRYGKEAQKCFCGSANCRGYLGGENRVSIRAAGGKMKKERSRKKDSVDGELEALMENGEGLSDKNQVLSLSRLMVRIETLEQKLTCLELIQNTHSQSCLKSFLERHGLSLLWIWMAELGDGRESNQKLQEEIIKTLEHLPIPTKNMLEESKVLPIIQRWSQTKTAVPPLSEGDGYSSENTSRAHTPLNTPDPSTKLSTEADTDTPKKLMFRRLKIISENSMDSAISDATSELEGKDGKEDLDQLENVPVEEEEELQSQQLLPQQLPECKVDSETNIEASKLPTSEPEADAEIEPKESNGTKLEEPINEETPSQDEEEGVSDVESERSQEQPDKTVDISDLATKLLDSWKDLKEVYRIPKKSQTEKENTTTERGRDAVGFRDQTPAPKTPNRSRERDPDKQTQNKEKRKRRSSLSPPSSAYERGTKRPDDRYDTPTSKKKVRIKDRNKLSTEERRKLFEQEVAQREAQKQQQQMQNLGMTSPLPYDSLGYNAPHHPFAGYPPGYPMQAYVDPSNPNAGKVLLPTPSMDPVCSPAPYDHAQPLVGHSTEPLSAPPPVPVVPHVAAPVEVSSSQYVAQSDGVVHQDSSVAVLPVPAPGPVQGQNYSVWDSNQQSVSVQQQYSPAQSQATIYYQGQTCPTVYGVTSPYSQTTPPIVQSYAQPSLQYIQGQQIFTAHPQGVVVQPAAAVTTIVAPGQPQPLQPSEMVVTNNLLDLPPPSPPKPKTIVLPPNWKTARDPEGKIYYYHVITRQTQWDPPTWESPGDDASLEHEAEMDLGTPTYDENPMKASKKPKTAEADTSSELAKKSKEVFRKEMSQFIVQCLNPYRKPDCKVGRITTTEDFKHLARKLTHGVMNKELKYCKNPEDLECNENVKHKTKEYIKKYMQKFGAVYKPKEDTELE

pIC50 (SETD2) | pIC50 (MLL4 complex) | efflux ratio at 90 min, 10 μM ([1]; Caco-2) | Papp at 90 min, 10 μM ([1]; Replicate 1, Direction A‐B) | Papp at 90 min, 10 μM ([1]; Replicate 1, Direction B‐A) | Papp at 90 min, 10 μM ([1]; Replicate 2, Direction A‐B) | Papp at 90 min, 10 μM ([1]; Replicate 2, Direction B‐A) | Papp(B−A)/Papp(A−B) (efflux ratio) (Caco‐2 cells) | SMILES | pIC50 (PRDM9)
5.13 | 5.68 | – | – | – | – | – | – | Nc1ncnc2c1ncn2[C@@H]1O[C@H](CSCC[C@H](N)C(=O)O)[C@@H](O)[C@H]1O [SAH, S‐(5′‐adenosyl)‐ʟ‐homocysteine] | –
– | – | – | – | – | – | – | – | CN1C(=O)[C@@]23C[C@]4([C@]56C[C@@]78SS[C@@](CO)(C(=O)N7[C@H]5Nc5ccccc56)N(C)C8=O)c5ccccc5N[C@@H]4N2C(=O)[C@]1(CO)SS3 [chaetocin] | 5.40
– | – | 62.9 | 0.3 ×10⁻⁶ cm/s | 18.1 ×10⁻⁶ cm/s | 0.2 ×10⁻⁶ cm/s | 17.5 ×10⁻⁶ cm/s | – | CC[C@H]1OC(=O)[C@H](C)[C@@H](O[C@H]2C[C@@](C)(OC)[C@@H](O)[C@H](C)O2)[C@H](C)[C@@H](O[C@@H]2O[C@H](C)C[C@H](N(C)C)[C@H]2O)[C@](C)(O)C[C@@H](C)C(=O)[C@H](C)[C@@H](O)[C@]1(C)O [Erythromycin] | –
– | – | – | 33.7 ×10⁻⁶ cm/s | 34.7 ×10⁻⁶ cm/s | 31.4 ×10⁻⁶ cm/s | 33.3 ×10⁻⁶ cm/s | 1.1 | COCCc1ccc(OCC(O)CNC(C)C)cc1 (stereo not shown) [Metoprolol] | –
